Experimental data as given in US20170281509A1, “COMPOSITIONS AND METHODS FOR MITIGATING SKIN IRRITATION” (GOJO INDUSTRIES, INC., priority 2014, published 2017).

System: IL-8 secretion by human dermal keratinocytes
Assay: IL-8 secretion (ELISA) in human dermal keratinocytes co-treated with irritant surfactant mixture
Type: cell-based
Details: FIG. 1
Source text: Interleukin 8 (IL-8) is a chemokine and proinflammatory cytokine produced by macrophages and other cell types such as epithelial cells. It is secreted from keratinocytes in skin in response to inflammatory stimuli. IL-8 is secreted and is an important mediator of the immune reaction in the innate immune system response. IL-8 overexpressed is a biomarker of skin irritation. Thus, the following method may be employed to measure the irritancy potential of an ingredient or combination of ingredients.
For Control A, human dermal keratinocytes were left untreated. No irritation is expected, and therefore Control A provided a baseline. For Control B, IL-8 was induced in human dermal keratinocytes by applying a surfactant mixture that is a combination of sodium laureth sulfate and polyquaternium-10. For all other samples, the human dermal keratinocytes were co-treated with the surfactant mixture and a composition containing the ingredient of interest. Decreased IL-8 expression reflects the ingredient's anti-irritation activity. In other words, decreased IL-8 expression reflects reduced irritancy potential.
In order to carry out the test method, an assay kit was employed that was obtained from R&D Systems: Human CXCL8/IL-8 Duoset ELISA Kit.
The following steps were followed: 1. […] Using a colorimeter, absorbance of each well in the plates was measured at 450 nanometers (nm) within 30 minutes. […]

Question: acetyl hexapeptide-51 amide was tested. Which “effect on IL-8 secretion compared to Control B (in words)” value did it give?
Answer: reduced IL-8 secretion
